From PMC12772312, “The MAB_3513c gene plays a key role in intrinsic resistance of Mycobacterium abscessus to isoniazid and ethionamide” (Microbiology Spectrum, 2025)

B1: Mycobacterium abscessus NADH pyrophosphatase NudC (MAB_3513c), wild type (enzyme)
chain: MTFRLRNIPLLSRVGLDRADELRSNPEELAKGWAEAGLITLDVRGRVNIVDGQVVIEDAARIGDQPPEHAVFLGRIPGGRHVWAVRADLDEDSAPLLDLRRSGQLFDDTSAALLATAMAMLAWHDNAGYSPVDGSPTIPAKGGWVRVNSATGQEEFPRTDPAIICLVHDGGDRAVLGRQKFWPERMFSLLAGFVEAGESLEACVAREVAEEVGLTVTDVQYLGSQPWPFPRSIMLGFHAIGDPSQPFAFNDGEIAEADWFTRAEVRSALEAGDWTTASDSRLMLPGSISIAREIVESWAYAGEEPPAGRP
notes: NADH pyrophosphatase NudC of Mycobacterium abscessus, gene MAB_3513c (nudC); The strain used in the study is M. abscessus subsp. abscessus GZ002 (genome GenBank CP034181); also called Wt NudC; source: E. coli BL21 (λDE3), pET-28a, purified (his-tag protein purification kit)

Columns and labels:
[1] = molecular target: T1, NudC (NudC^Mab; MAB_3513c) (Mycobacteroides abscessus, UniProt A0A0U1C370); assay: HPLC/MS of metabolite extracts, wild type versus nudC deletion strain; assay type: cell-based; conditions: adduct formed in cells from ethionamide (256 ug/mL, 3 h, 37 C); no purified enzyme assay
T1 construct: native full-length protein in M. abscessus cells, compared with isogenic nudC deletion; functional homodimer

[2] = molecular target: the molecule itself; assay: SEC; HiLoad 16/600 Superdex 75 pg, 20 mM Tris-HCl (pH 7.5), 150 mM NaCl, 1 mM 1,4-dithiothreitol, 4°C, 1 mL/min; retention times compared to molecular weight standards

| Molecule | HPLC/MS of metabolite extracts, wild type versus nudC deletion strain [1] | stoichiometry N [2] |
| --- | --- | --- |
| CCc1cc(C(=O)C2C=CN([C@@H]3O[C@H](COP(=O)(O)OP(=O)(O)OC[C@H]4O[C@@H](n5cnc6c(N)ncnc65)[C@H](O)[C@@H]4O)[C@@H](O)[C@H]3O)C=C2C(N)=O)ccn1 (some centres unmarked) [ETH-NAD adduct] | nudC encodes a functional NudC that hydrolyzes ETH-NAD adduct | – |
| B1 | – | 2 |
